# According to the supplement of paper PMC10307832:
# Tests used:
# Test in all cases: relative viability (nuclei count vs DMSO), 5 days (fraction); higher = more cells survive
# [1] = compound: COc1cc2nc(N3CCCN(C)CC3)nc(NC3CCN(Cc4ccccc4)CC3)c2cc1OC + CC1(C)CCC(c2ccc(Cl)cc2)=C(CN2CCN(c3ccc(C(=O)NS(=O)(=O)c4ccc(N[C@H](CCN5CCOCC5)CSc5ccccc5)c(S(=O)(=O)C(F)(F)F)c4)cc3)CC2)C1 [Navitoclax] (partner 0.5 µM)
# In short: (§1)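 Values are medians from duplicate plates. Each reflects relative viability, defined as the nuclei count of treated wells over that of vehicle wells. Lung cancer cell lines in 1536-well plates were pin-tool dosed one day after seeding with one drug alone or with a fixed anchor-drug dose plus five library-drug doses (not always all listed) in √10 steps, then fixed, stained and imaged at 4× after 5 days.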
# [2] = compound: COc1cc2nc(N3CCCN(C)CC3)nc(NC3CCN(Cc4ccccc4)CC3)c2cc1OC + CS(=O)(=O)CCNCc1ccc(-c2ccc3ncnc(Nc4ccc(OCc5cccc(F)c5)c(Cl)c4)c3c2)o1 [Lapatinib] (partner 2 µM)
# In short: as §1
# [3] = compound: Cc1cc([C@@H](C)Nc2ccccc2C(=O)O)c2nc(N3CCOCC3)cc(=O)n2c1 [AZD6482] + CCNC(=O)c1noc(-c2cc(C(C)C)c(O)cc2O)c1-c1ccc(CN2CCOCC2)cc1 [Luminespib] (partner 0.01 µM)
# In short: as §1
# [4] = compound: Cc1cc([C@@H](C)Nc2ccccc2C(=O)O)c2nc(N3CCOCC3)cc(=O)n2c1 [AZD6482] + Cc1nc(Nc2ncc(C(=O)Nc3c(C)cccc3Cl)s2)cc(N2CCN(CCO)CC2)n1 [Dasatinib] (partner 0.075 µM)
# In short: as §1
Cell Line,relative viability ([1]; first compound 0.2 µM),relative viability ([1]; first compound 0.6325 µM),relative viability ([1]; first compound 2 µM),relative viability ([1]; first compound 6.325 µM),relative viability ([2]; first compound 0.2 µM),relative viability ([2]; first compound 0.6325 µM),relative viability ([2]; first compound 2 µM),relative viability ([2]; first compound 6.325 µM),relative viability ([3]; first compound 0.08 µM),relative viability ([3]; first compound 0.253 µM),relative viability ([3]; first compound 0.8 µM),relative viability ([3]; first compound 2.53 µM),relative viability ([3]; first compound 8 µM),relative viability ([4]; first compound 0.08 µM),relative viability ([4]; first compound 0.253 µM),relative viability ([4]; first compound 0.8 µM),relative viability ([4]; first compound 2.53 µM),relative viability ([4]; first compound 8 µM)
NCI-H727,0.495,0.517,0.381,0.225,0.769,0.901,0.838,0.543,0.245,0.348,0.786,0.292,0.345,0.401,0.41,0.41,0.266,0.395
H3255,0.517,0.59,0.669,0.544,0.235,0.273,0.258,0.165,0.986,0.761,0.806,0.529,0.799,0.339,0.342,0.476,0.345,0.322
SK-MES-1,1.14,1.24,1.36,0.999,0.476,0.433,0.539,0.483,0.416,0.556,0.313,0.269,0.304,0.179,0.235,0.169,0.125,0.168
NCI-H1437,1.12,1.04,1.17,1.04,0.754,0.888,0.966,0.698,1.16,1.2,1.14,0.969,1.15,0.599,0.316,0.44,0.282,0.244
LU99A,0.899,0.689,0.625,0.815,0.909,0.93,1.1,0.898,0.323,0.26,0.334,0.237,0.238,0.562,0.522,0.397,0.389,0.407
HCC-827,1.01,1.01,0.988,1.01,0.181,0.196,0.198,0.193,0.601,0.478,0.293,0.27,0.196,0.255,0.2,0.197,0.161,0.214
LK-2,0.91,0.843,1.16,0.637,0.983,0.996,1.14,0.909,0.231,0.187,0.229,0.177,0.167,0.349,0.286,0.327,0.26,0.221
BEN,0.0596,0.0723,0.0708,0.0777,0.721,0.953,0.94,0.721,0.399,0.193,0.522,0.177,0.334,0.358,0.269,0.39,0.216,0.339
NCI-H23,0.757,0.882,1.02,0.722,1.02,1.03,1.37,1.02,0.235,–,0.249,0.207,0.201,0.746,0.952,0.511,0.572,0.368
